Experimental data taken from ChEMBL document CHEMBL5126666, “Cladoxanthones A and B, Xanthone-Derived Metabolites with a Spiro[cyclopentane-1,2'-[3,9a]ethanoxanthene]-2,4',9',11'-tetraone Skeleton from a Cladosporium sp” (J Nat Prod, 2022).
pIC50: −log10 of the molar value.

Tests used:
Type in all cases: functional, cell-based
J82 = assay: Antiproliferative activity against human J82 cells assessed as reduction in cell viability after 24 hrs by MTT assay; settings: J82, 24 h
Huh-7 = assay: Antiproliferative activity against human Huh-7 cells assessed as reduction in cell viability after 24 hrs by MTT assay; settings: Huh-7, 24 h
[1] = Antiproliferative activity against mouse MB49 cells assessed as reduction in cell viability after 24 hrs by MTT assay; settings: MB49, 24 h
4T1 = assay: Antiproliferative activity against mouse 4T1 cells assessed as reduction in cell viability after 24 hrs by MTT assay; settings: 4T1, 24 h

SMILES	pIC50 (J82)	pIC50 (Huh-7)	pIC50 [1]	pIC50 (4T1)
CC1=CC(=O)[C@]2(O)C(=O)c3c(ccc(-c4ccc5c(c4O)C(=O)[C@@]46C[C@@]7(C(=O)CC[C@@H]7C)[C@@](C)(CC4=O)C(=O)[C@]6(C)O5)c3O)O[C@@]2(C)[C@H]1O	4.61	4.33	4.38	4.56
C[C@H]1CCC(=O)[C@@]12C[C@]13C(=O)C[C@@]2(C)C(=O)[C@]1(C)Oc1cccc(O)c1C3=O	4.60	4.61	4.86	4.41
